What was measured:
plasmin = conditions: read-out: IC50, plasmin; Figure 1; cited from earlier work
thrombin = thrombin (Homo sapiens, UniProt P00734); experiment: Selectivity: inhibition of thrombin; assay type: biochemical; conditions: deduced from pre-assays with only three inhibitor concentrations; read-out: Thrombin K i
Method: (§1) For these three proteases a selectivity index (SI=K i(protease)/K i(plasmin)) was calculated, which is provided in brackets after the inhibition constants (Table 3).
(§2) The measurements with the related trypsin‐like serine proteases trypsin, plasma kallikrein, factor XIa, thrombin, activated protein Ca and factor Xa used in selectivity studies were performed as described previously.[11, 12]

[1] = biological target: activated protein C (aPC) (Homo sapiens, UniProt P04070); experiment: Selectivity: inhibition of activated protein C; assay type: biochemical; conditions: deduced from pre-assays with only three inhibitor concentrations; read-out: aPC K i
Method: as §1, §2

[2] = Water solubility (qualitative comparison); conditions: compared to inhibitor 28
plasma kallikrein (PK) = plasma kallikrein (PK) (Homo sapiens, UniProt P03952); experiment: Selectivity: inhibition of plasma kallikrein; assay type: biochemical; conditions: for PK selectivity index K i(protease)/Ki(plasmin): in brackets; for Ki: read-out: PK K i
Method: as §1, §2

factor XIa (fXIa) = factor XIa (fXIa) (Homo sapiens, UniProt P03951); experiment: Selectivity: inhibition of factor XIa; assay type: biochemical; conditions: for fXIa selectivity index K i(protease)/Ki(plasmin): in brackets; for Ki: read-out: fXIa K i
Method: as §1, §2

factor Xa (fXa) = factor Xa (fXa) (Homo sapiens, UniProt P00742); experiment: Selectivity: inhibition of factor Xa; assay type: biochemical; conditions: deduced from pre-assays with only three inhibitor concentrations; read-out: fXa K i
Method: as §1, §2

human plasmin = biological target: T1, human plasmin (Homo sapiens, UniProt P00747); experiment: Inhibition of human plasmin, fluorogenic substrate Mes-DArg-Phe-Arg-AMC; assay type: biochemical
T1 construct: purchased Calbiochem
Method: All inhibitors prepared in this study act as reversible competitive plasmin inhibitors, their K i values were calculated by fitting the steady‐state velocities as function of the inhibitor concentrations using equation 1. 4‐aminophenylalanine (Phe(4‐NH2)) was incorporated as P1’ residue in the first inhibitor series, which enabled a macrocyclization via amide bond formation from its side chain amino group using various linker segments and P2’ residues (Table 1). […] The improved potency of SFTI‐1 analogues with basic P2’ residues[9] stimulated the incorporation of Arg in that position leading to inhibitor 4 with a slightly stronger inhibitory potency. A significant improvement could be achieved when using 3‐ or 4‐aminophenylacetic acid as P2’ group in combination with elongated linker residues (5‐6). […] However, inhibitor 9 is a twofold stronger plasmin inhibitor compared to its analogue 8.
For these inhibitors the steady‐state velocities were calculated by fitting the progress curves to equation 2 providing an additional apparent first‐order rate constant k obs for each curve. The steady‐state rates were used for K i determination with equation 1 and the k obs values for the calculation of the association rate constants k on according to equation 3. The dissociation rate constant k off was calculated from the known K i and k on values using equation 4. The enzyme kinetic evaluation of slow‐binding inhibitors of plasmin has already been described in detail in our two previous publications.[11, 12]
All measurements were conducted as triplicates in black 96‐well FluoroNunc MaxiSorp plates (Nunc, Langenselbold, Germany) and suitable fluorogenic substrates at room temperature. […] Each well contained a total volume of 180 μL consisting of 100 μL of inhibitor dissolved in buffer, 40 μL of the substrate Mes‐DArg‐Phe‐Arg‐AMC[11] (100 μM in assay, KM=16.1 μM) dissolved in water and 40 μL of plasmin solution (0.27 nM in assay). The following equations were used for the enzyme kinetic analysis as described in the results section and in our previous publications.[11, 12] (1) [drawing 71] (2) [drawing 72] (3) [drawing 73] (4) [drawing 74]

PK = conditions: no reference given; read-out: K i, PK; cited from earlier work
[3] = K i (nM), inhibition of plasmin, series two, substituted Bpa in P1', and acyclic analogues, steady-state velocities, equation 1
[4] = Plasmin K i, Table 3 selectivity

T1 sequence (P00747 581-810): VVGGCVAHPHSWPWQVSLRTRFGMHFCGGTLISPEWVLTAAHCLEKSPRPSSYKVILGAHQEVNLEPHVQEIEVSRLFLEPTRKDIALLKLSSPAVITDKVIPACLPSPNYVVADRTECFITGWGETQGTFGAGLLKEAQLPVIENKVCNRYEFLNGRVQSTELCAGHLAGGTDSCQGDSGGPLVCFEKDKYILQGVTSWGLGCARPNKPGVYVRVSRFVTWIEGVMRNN
T1 sequence (P00747 97-580): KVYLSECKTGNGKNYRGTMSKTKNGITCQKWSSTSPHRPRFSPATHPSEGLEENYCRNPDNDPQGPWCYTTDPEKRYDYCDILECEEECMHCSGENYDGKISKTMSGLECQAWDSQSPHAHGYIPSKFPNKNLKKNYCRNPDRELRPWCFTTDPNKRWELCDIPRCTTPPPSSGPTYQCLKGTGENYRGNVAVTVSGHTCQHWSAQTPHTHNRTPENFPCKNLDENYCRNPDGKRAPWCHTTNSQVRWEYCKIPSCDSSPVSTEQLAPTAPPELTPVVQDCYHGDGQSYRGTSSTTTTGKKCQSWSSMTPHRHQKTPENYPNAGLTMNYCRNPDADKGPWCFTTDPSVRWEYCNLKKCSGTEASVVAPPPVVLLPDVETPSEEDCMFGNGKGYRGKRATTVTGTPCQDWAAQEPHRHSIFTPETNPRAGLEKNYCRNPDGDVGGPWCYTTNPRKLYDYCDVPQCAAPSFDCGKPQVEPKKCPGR
Chain of plasma kallikrein (PK) (P03952 391-638): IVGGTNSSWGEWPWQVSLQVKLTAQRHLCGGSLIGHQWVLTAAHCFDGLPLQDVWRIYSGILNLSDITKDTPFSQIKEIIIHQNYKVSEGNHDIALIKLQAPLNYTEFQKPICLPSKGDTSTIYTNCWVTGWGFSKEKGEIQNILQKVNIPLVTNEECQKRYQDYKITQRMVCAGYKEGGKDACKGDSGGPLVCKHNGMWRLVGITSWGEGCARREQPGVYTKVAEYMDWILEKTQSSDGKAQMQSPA
Chain of plasma kallikrein (PK) (P03952 20-390): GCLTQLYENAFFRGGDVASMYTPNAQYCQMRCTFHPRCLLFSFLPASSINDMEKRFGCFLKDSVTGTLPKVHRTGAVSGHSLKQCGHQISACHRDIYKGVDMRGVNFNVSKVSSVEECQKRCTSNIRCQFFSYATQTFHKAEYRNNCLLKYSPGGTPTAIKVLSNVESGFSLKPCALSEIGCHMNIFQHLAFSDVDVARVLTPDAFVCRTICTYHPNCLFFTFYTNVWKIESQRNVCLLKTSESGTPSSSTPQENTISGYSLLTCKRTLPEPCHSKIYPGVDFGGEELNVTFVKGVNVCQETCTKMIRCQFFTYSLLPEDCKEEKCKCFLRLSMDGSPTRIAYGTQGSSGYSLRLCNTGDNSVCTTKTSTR
Chain of factor Xa (fXa) (P00742 41-179): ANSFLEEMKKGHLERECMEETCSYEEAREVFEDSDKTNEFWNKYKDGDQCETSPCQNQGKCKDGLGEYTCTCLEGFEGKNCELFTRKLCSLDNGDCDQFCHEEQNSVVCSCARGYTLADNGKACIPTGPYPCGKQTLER
Chain of factor Xa (fXa) (P00742 235-488): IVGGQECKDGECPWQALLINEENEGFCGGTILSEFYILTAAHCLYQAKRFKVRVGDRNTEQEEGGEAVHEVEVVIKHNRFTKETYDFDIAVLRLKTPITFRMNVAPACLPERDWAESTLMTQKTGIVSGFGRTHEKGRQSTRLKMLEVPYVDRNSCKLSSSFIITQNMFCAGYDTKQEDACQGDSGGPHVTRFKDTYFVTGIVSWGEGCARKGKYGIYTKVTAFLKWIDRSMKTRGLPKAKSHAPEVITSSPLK
Chain of factor XIa (fXIa) (P03951 19-387): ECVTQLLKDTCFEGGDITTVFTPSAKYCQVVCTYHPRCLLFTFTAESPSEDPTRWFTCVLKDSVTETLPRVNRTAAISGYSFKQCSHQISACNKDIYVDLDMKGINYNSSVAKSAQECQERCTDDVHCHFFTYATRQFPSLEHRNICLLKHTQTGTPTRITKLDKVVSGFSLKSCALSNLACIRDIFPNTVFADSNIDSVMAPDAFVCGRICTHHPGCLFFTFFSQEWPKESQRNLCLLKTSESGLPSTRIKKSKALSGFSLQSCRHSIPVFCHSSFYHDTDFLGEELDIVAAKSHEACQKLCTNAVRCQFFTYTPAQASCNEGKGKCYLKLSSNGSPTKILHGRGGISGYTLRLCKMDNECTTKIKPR
Chain of factor XIa (fXIa) (P03951 388-625): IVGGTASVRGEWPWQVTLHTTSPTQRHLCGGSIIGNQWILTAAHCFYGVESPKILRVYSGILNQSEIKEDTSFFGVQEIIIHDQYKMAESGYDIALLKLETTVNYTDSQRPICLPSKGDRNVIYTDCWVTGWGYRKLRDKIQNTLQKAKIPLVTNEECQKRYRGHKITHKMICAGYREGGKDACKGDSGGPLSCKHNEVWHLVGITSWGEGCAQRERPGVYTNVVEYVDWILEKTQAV
Chain of activated protein C (aPC) (P04070 43-197): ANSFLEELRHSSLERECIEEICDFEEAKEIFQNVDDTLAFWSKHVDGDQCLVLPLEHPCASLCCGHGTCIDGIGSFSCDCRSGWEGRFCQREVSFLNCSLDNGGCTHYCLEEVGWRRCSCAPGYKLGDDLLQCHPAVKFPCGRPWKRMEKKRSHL
Chain of activated protein C (aPC) (P04070 212-461): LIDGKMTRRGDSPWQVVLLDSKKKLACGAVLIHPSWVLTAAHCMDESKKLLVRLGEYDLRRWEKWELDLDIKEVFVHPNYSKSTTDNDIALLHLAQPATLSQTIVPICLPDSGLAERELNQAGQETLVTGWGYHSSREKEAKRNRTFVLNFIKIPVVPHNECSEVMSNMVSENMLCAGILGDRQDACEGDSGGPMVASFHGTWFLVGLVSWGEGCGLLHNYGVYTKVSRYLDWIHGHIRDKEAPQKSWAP

| Ki (thrombin) | Ki [1] | PK selectivity index K i(protease)/Ki(plasmin) (plasma kallikrein (PK)) | Ki (plasma kallikrein (PK)) | fXIa selectivity index K i(protease)/Ki(plasmin) (factor XIa (fXIa)) | Ki (factor XIa (fXIa)) | Ki (factor Xa (fXa)) | Ki (human plasmin; [3]) | Ki (human plasmin; [4]) | Compound | IC50 (plasmin) | water solubility [2] | Ki (PK) |
| --- | --- | --- | --- | --- | --- | --- | --- | --- | --- | --- | --- | --- |
| – | – | – | – | – | – | – | – | – | CCCCCCCCNC(=O)[C@H](Cc1ccc(OCc2ccncc2)cc1)NC(=O)[C@H]1CC[C@H](CN)CC1 [YO-2] | 240 nM | – | – |
| > 80000 nM | > 40000 nM | 14 | 120 ± 10 nM | 13 | 110 ± 10 nM | > 9000 nM | 9.47 ± 0.75 nM | 9.47 nM | Cc1ccc2cc1NC(=O)CNC(=O)CCCNC(=O)Cc1cccc(c1)NC(=O)[C@@H](NC(=O)[C@H]1CC[C@H](CN)CC1)Cc1ccc-2cc1 [inhibitor 40] | – | – | – |
| > 40000 nM | > 4000 nM | 62 | 156 ± 35 nM | 137 | 320 ± 50 nM | > 40000 nM | 2.53 ± 0.23 nM | 2.53 nM | Cc1ccc2cc1NC(=O)CNC(=O)CCNC(=O)c1ccc3cc(ccc3c1)NC(=O)[C@@H](NC(=O)[C@H]1CC[C@H](CN)CC1)Cc1ccc-2cc1 [inhibitor 45] | – | – | – |
| – | – | – | – | – | – | – | – | – | aprotinin | – | – | 30 nM |

| Compound | Ki (thrombin) | Ki [1] | PK selectivity index K i(protease)/Ki(plasmin) (plasma kallikrein (PK)) | Ki (plasma kallikrein (PK)) | fXIa selectivity index K i(protease)/Ki(plasmin) (factor XIa (fXIa)) | Ki (factor XIa (fXIa)) | Ki (factor Xa (fXa)) | Ki (human plasmin; [3]) | Ki (human plasmin; [4]) | IC50 (plasmin) | water solubility [2] | Ki (PK) |
| --- | --- | --- | --- | --- | --- | --- | --- | --- | --- | --- | --- | --- |
| Cc1ccc2cc1NC(=O)C(CCc1ccccc1)NC(=O)CCCNC(=O)Cc1ccc(cc1)NC(=O)C(NC(=O)C1CCC(CN)CC1)Cc1ccc-2cc1 (stereo not drawn) [inhibitor 31] | > 75000 nM | > 10000 nM | 89 | 67 ± 4 nM | 117 | 88 ± 23 nM | > 80000 nM | 0.831 ± 0.154 nM | 0.831 nM | – | reduced water solubility | – |
